The values below come from PubChem BioAssay (NCI).

The structures appear in SMILES notation.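 All cell lines were grown in 96-well plates and treated with compound for 48 hours. The concentration for 50% growth inhibition is given as GI50. TGI: total growth inhibition.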 A value given as a limit tells only on which side of the number the result lay.

Among the test systems are MOLT-4 leukemia; OVCAR-3 ovarian; LOX IMVI melanoma; SK-OV-3 ovarian; MALME-3M melanoma; M14 melanoma; EKVX NSCLC; KM12 colon; SR leukemia.
Assay in all cases: inhibition of tumour cell growth, NCI panel, 48 h

Consider `CCOC(=O)C12CCCC1(O)N(NC(=O)c1ccccc1)C(C)=C2C(=O)OC` (stereo not given), for which the TGI with MOLT-4 leukemia, in the assay with OVCAR-3 ovarian, in the assay with LOX IMVI melanoma, in the assay on SK-OV-3 ovarian, with MALME-3M melanoma and in the assay on M14 melanoma was more than 100 µM throughout. For the same compound, the TGI with EKVX NSCLC and with KM12 colon was more than 100 µM throughout.

`O=C(O)C(CP(=O)(O)O)=C(Cl)Cl`: the TGI in the assay with MOLT-4 leukemia, in the assay on SR leukemia, in the assay on OVCAR-3 ovarian, in the assay on LOX IMVI melanoma, with SK-OV-3 ovarian and with MALME-3M melanoma was more than 100 µM throughout. This compound also displayed a TGI with EKVX NSCLC of more than 100 µM.

For the compound `CCC[CH2][Sn]1([CH2]CCC)[O]C(=O)c2cc(I)cc(I)c2[O]1`, the GI50 was 0.344 µM with MOLT-4 leukemia; 0.279 µM in the assay with SR leukemia; 1.42 µM with OVCAR-3 ovarian; 0.8 µM in the assay on LOX IMVI melanoma; 2.09 µM in the assay with SK-OV-3 ovarian; 1 µM with MALME-3M melanoma. The GI50 in the assay on M14 melanoma was 1.66 µM; with EKVX NSCLC, 1.35 µM; in the assay with KM12 colon, 1.61 µM. Besides, the TGI in the assay with MOLT-4 leukemia worked out at 1.76 µM; in the assay on SR leukemia, 1.7 µM; in the assay on OVCAR-3 ovarian it was 2.77 µM; in the assay on LOX IMVI melanoma, 2.39 µM; in the assay on SK-OV-3 ovarian, 4.65 µM; in the assay with MALME-3M melanoma it was 2.23 µM. Further, the TGI stood at 3.17 µM in the assay with M14 melanoma, 3.4 µM with EKVX NSCLC and 2.99 µM in the assay on KM12 colon.

For `Cc1c(Cl)ccc2c1NC(=O)C2(O)C(C(=O)c1ccccc1)c1ccccc1` (stereo not given), the TGI in the assay with MOLT-4 leukemia was 76.7 µM; with SR leukemia, 60.2 µM; in the assay on LOX IMVI melanoma, more than 100 µM; in the assay on SK-OV-3 ovarian it was more than 100 µM; in the assay on MALME-3M melanoma, more than 100 µM; in the assay on M14 melanoma, more than 100 µM. The TGI with EKVX NSCLC and in the assay with KM12 colon was more than 100 µM throughout.

In the case of `CS(=O)(=O)NNS(=O)(=O)c1cccc([N+](=O)[O-])c1`, the TGI in the assay with MOLT-4 leukemia, with SR leukemia, in the assay on LOX IMVI melanoma, in the assay with MALME-3M melanoma, in the assay on M14 melanoma and in the assay with EKVX NSCLC was more than 100 µM in each case. Besides, the TGI in the assay on KM12 colon was more than 100 µM.

Take `COc1ccc(C(=O)C(c2ccc(OC)cc2)C2(O)C(=O)Nc3ccccc32)cc1` (stereo not given): the TGI in the assay on MOLT-4 leukemia, with SR leukemia, in the assay on OVCAR-3 ovarian, in the assay on LOX IMVI melanoma, with SK-OV-3 ovarian and in the assay on MALME-3M melanoma was more than 100 µM throughout. Further, the TGI in the assay with M14 melanoma, in the assay on EKVX NSCLC and in the assay with KM12 colon was more than 100 µM throughout.

Take `O=S1c2ccccc2N=C(c2ccc3ccccc3c2)CC1C1=CC=CCC1` (stereo not given): the TGI was 40.5 µM in the assay with MOLT-4 leukemia; 31.8 µM in the assay with OVCAR-3 ovarian; 30.8 µM with LOX IMVI melanoma; 50.4 µM with SK-OV-3 ovarian; 62.3 µM with MALME-3M melanoma; 35.6 µM with M14 melanoma. The TGI in the assay with EKVX NSCLC worked out at 42.8 µM; in the assay with KM12 colon, 32.2 µM.

Consider `COc1cc(/C=C2\[C@H]3c4c(c(OC)c(C)c(OC)c4OC)C[C@@H](C(=O)N2Cc2ccccc2)N3C(=O)OCC(C)C)c(OC)c(C)c1OC`, for which the TGI with MOLT-4 leukemia, in the assay on SR leukemia, in the assay with OVCAR-3 ovarian, in the assay on LOX IMVI melanoma, in the assay with SK-OV-3 ovarian and in the assay on MALME-3M melanoma was more than 100 µM in each case. The TGI in the assay on M14 melanoma, with EKVX NSCLC and in the assay on KM12 colon was more than 100 µM each time.

Turning to `COc1ccc2c(c1)c(-c1ccc(-c3cn(S(=O)(=O)c4ccccc4)c4ccc(OC)cc34)s1)cn2S(=O)(=O)c1ccccc1`, the GI50 with MOLT-4 leukemia, with SR leukemia, in the assay on OVCAR-3 ovarian, in the assay on LOX IMVI melanoma, in the assay with SK-OV-3 ovarian and in the assay on MALME-3M melanoma was more than 100 µM throughout. Further, the GI50 with M14 melanoma, in the assay with EKVX NSCLC and in the assay with KM12 colon was more than 100 µM each time. The TGI with MOLT-4 leukemia, in the assay with SR leukemia, with OVCAR-3 ovarian, with LOX IMVI melanoma, with SK-OV-3 ovarian and with MALME-3M melanoma was more than 100 µM throughout. Besides, the TGI in the assay on M14 melanoma, in the assay on EKVX NSCLC and with KM12 colon was more than 100 µM throughout.

`COc1ccc2c(=O)c(C)c(-c3ccccc3)oc2c1CN(C)C`: the TGI in the assay with MOLT-4 leukemia, in the assay on SR leukemia, in the assay on OVCAR-3 ovarian, in the assay on LOX IMVI melanoma, in the assay with SK-OV-3 ovarian and in the assay with MALME-3M melanoma was more than 100 µM in each case. In addition, the TGI with M14 melanoma, in the assay on EKVX NSCLC and in the assay on KM12 colon was more than 100 µM in each case.

As to `C/C(=C\C(C)COCc1ccccc1)[C@H](COCc1ccccc1)OCc1ccccc1` (stereo not given in full), the TGI with MOLT-4 leukemia, in the assay with OVCAR-3 ovarian, in the assay with LOX IMVI melanoma, in the assay with SK-OV-3 ovarian, in the assay on M14 melanoma and in the assay with EKVX NSCLC was more than 100 µM in each case. For the same compound, the TGI in the assay on KM12 colon is more than 100 µM.

As to `CCCN(CCCCC(NC(C)=O)C(=O)NCc1ccccc1)C(=O)N(C)N=O` (stereo not given), the TGI in the assay on MOLT-4 leukemia, in the assay on OVCAR-3 ovarian, in the assay on LOX IMVI melanoma, with SK-OV-3 ovarian, in the assay on MALME-3M melanoma and in the assay with M14 melanoma was more than 100 µM each time. The TGI with EKVX NSCLC and with KM12 colon was more than 100 µM in each case.

With `CCOC(=O)/C(O)=C(/c1n[nH]c(=O)c2ccccc12)[N+](=O)[O-]`, the TGI with MOLT-4 leukemia, with OVCAR-3 ovarian, in the assay with LOX IMVI melanoma, in the assay on SK-OV-3 ovarian, with MALME-3M melanoma and with M14 melanoma was more than 100 µM throughout. Besides, the TGI with EKVX NSCLC and in the assay on KM12 colon was more than 100 µM in each case.

Turning to `O=c1/c(=C/c2cccc([N+](=O)[O-])c2)sc2nc3ccccc3n12`, the TGI in the assay with LOX IMVI melanoma, in the assay with SK-OV-3 ovarian, in the assay with MALME-3M melanoma, in the assay with M14 melanoma, in the assay with EKVX NSCLC and in the assay with KM12 colon was more than 100 µM in each case.
